# System: T1, cholesterol oxidase from Streptomyces aegyptia NEAE 102
# T1 construct: gene choA; native extracellular enzyme purified from culture supernatant (ammonium sulfate, DEAE Sepharose CL-6B); 46 kDa by SDS-PAGE
# Assay: peroxidase-coupled H2O2 assay (4-aminoantipyrine/phenol, […] nm); Michaelis-Menten nonlinear regression
# Format: biochemical
# Conditions: pH 7.0 potassium phosphate, 37 °C, Triton X-100; O2 as co-substrate
compound,measurement,value
CC(C)CCC[C@@H](C)[C@H]1CC[C@H]2[C@@H]3CC=C4C[C@@H](O)CC[C@]4(C)[C@H]3CC[C@]12C [cholesterol],Km,152 µM
